Measurements from the supplement of paper PMC7840683.
Where a name gives a salt, the structure may show the parent alone.

Test system: HepaRG
Assay: LDH release cytotoxicity, % of total lysis control; higher = more cytotoxic
Conditions: 48 h
In short: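 Duplicate wells of single-lot HepaRG cells, grown on collagen I-coated 96-well plates, received eight-point half-log series of test chemicals with 100 µM as the top concentration. Exposure lasted 48 h in serum-free induction medium with 0.5% DMSO, while total lysis wells received 0.1% Triton X. Resorufin fluorescence (CytoTox-ONE, Tecan Safire) was used to quantify LDH leaked into 50 µL of spent medium. Values for percent cytotoxicity were normalized to on-plate vehicle and total lysis controls and averaged across the duplicates.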

Cc1ccc(O)cc1 [p-Cresol]
Conditions	LDH release cytotoxicity [%]
0.03162 µM	-0.87
0.1 µM	-2.34
0.3162278 µM	-1.45
1 µM	-0.608
3.16228 µM	-1.02
10 µM	-1.22
31.6228 µM	-0.051
100 µM	1.76

CC12CCC3c4ccc(O)cc4CCC3C1CCC2=O (stereo unspecified) [Estrone]
Conditions	LDH release cytotoxicity [%]
0.03162 µM	-1.21
0.1 µM	-1.61
0.3162278 µM	-1.15
1 µM	-2.36
3.16228 µM	-2.37
10 µM	-2.52
31.6228 µM	-1.9
100 µM	0.127

CCNP(=S)(OC)OC(C)=CC(=O)OC(C)C (stereo unspecified) [Propetamphos]
Conditions	LDH release cytotoxicity [%]
0.03162 µM	0.305
0.1 µM	-0.308
0.3162278 µM	-1.36
1 µM	-0.42
3.16228 µM	-0.261
10 µM	0.0856
31.6228 µM	-1.69
100 µM	2.91

Cc1ccc(N)cc1N [2,4-Diaminotoluene]
Conditions	LDH release cytotoxicity [%]
0.031623 µM	-1.84
0.1 µM	-0.98
0.316228 µM	-1.49
1 µM	-2.17
3.16228 µM	-1.86
10 µM	-1.56
31.6228 µM	-1.29
100 µM	-0.394

CN(C)N=O [N-Nitrosodimethylamine]
Conditions	LDH release cytotoxicity [%]
0.02893 µM	0.0505
0.0915 µM	-1.57
0.289348 µM	-0.817
0.915 µM	-1.29
2.89348 µM	-2.32
9.15 µM	-0.967
28.9348 µM	-0.682
91.5 µM	0.3

Cc1cn(C2CC(N=[N+]=[N-])C(CO)O2)c(=O)nc1O (stereo unspecified) [3'-Azido-3'-deoxythymidine]
Conditions	LDH release cytotoxicity [%]
0.03162 µM	-0.42
0.1 µM	-0.0584
0.3162278 µM	-1.1
1 µM	-0.757
3.16228 µM	-0.57
10 µM	-0.541
31.6228 µM	-0.814
100 µM	-0.709

CN(C)CCCN(C)CCCN(C)C [2,6,10-Trimethyl-2,6,10-triazaundecane]
Conditions	LDH release cytotoxicity [%]
0.03162 µM	-1.25
0.1 µM	-1.63
0.3162278 µM	-2.17
1 µM	-1.73
3.16228 µM	-1.82
10 µM	-1.78
31.6228 µM	-0.82
100 µM	-0.216

c1ccc2[nH]nnc2c1 [1,2,3-Benzotriazole]
Conditions	LDH release cytotoxicity [%]
0.03162 µM	-1.49
0.1 µM	-1.03
0.3162278 µM	-1.12
1 µM	-1.12
3.16228 µM	-1.23
10 µM	-0.765
31.6228 µM	0.381
100 µM	1.81

Oc1ccc2c(c1)-c1ccccc1C2 [3-Hydroxyfluorene]
Conditions	LDH release cytotoxicity [%]
0.03162 µM	-1.48
0.1 µM	-1.06
0.3162278 µM	-0.414
1 µM	-1.04
3.16228 µM	-0.932
10 µM	-0.0118
31.6228 µM	0.438
100 µM	3.69

CCn1nc(Cc2ccccc2)cc1C1CCN(CC2CC(N(C)C(C(=O)O)C(C)C)CC2c2cccc(F)c2)CC1 (stereo unspecified) [MK-578]
Conditions	LDH release cytotoxicity [%]
0.03162 µM	-1.06
0.1 µM	-1.8
0.3162278 µM	-1.85
1 µM	-2.168
3.16228 µM	-2.16
10 µM	-1.47
31.6228 µM	-1.08
100 µM	9.55

O=C(O)[C@H](O)[C@@H](O)C(=O)O [L-Tartaric acid]
Conditions	LDH release cytotoxicity [%]
0.03162 µM	-3.55
0.1 µM	-2.52
0.3162278 µM	-2.17
1 µM	-2.97
3.16228 µM	-2.2
10 µM	-0.465
31.6228 µM	1.18
100 µM	6.93

N#CC1CC(F)(F)CN1C(=O)CNC1CC2CCC(C1)N2c1ncccn1 (stereo unspecified)
Conditions	LDH release cytotoxicity [%]
0.03162 µM	-1.64
0.1 µM	-2.99
0.3162278 µM	-2.24
1 µM	-2.72
3.16228 µM	-2.06
10 µM	-1.96
31.6228 µM	-1.33
100 µM	-1.49

N#Cc1nn(-c2c(Cl)cc(C(F)(F)F)cc2Cl)c(N)c1S(=O)C(F)(F)F (stereo unspecified) [Fipronil]
Conditions	LDH release cytotoxicity [%]
0.0317809 µM	-1.15
0.1005 µM	-0.938
0.317809 µM	-1.37
1.005 µM	-2.05
3.17809 µM	-1.97
10.05 µM	-1.68
31.7809 µM	19.3
100.5 µM	59.8

CCCCC(CC)COC(=O)c1ccc(C(=O)OCC(CC)CCCC)c(C(=O)OCC(CC)CCCC)c1 (stereo unspecified) [Tris(2-ethylhexyl) trimellitate]
Conditions	LDH release cytotoxicity [%]
0.03162 µM	-1.9
0.1 µM	-0.779
0.3162278 µM	-1.6
1 µM	-0.598
3.16228 µM	-1.18
10 µM	-0.738
31.6228 µM	-0.634
100 µM	5.97

CCCOC(=O)NCCCN(C)C [Propamocarb hydrochloride]
Conditions	LDH release cytotoxicity [%]
0.03162 µM	0.518
0.1 µM	-0.315
0.3162278 µM	-0.112
1 µM	-0.746
3.16228 µM	0
10 µM	0.683
31.6228 µM	0.664
100 µM	0.411

O=C(CCCN1CCC(O)(c2ccc(Cl)cc2)CC1)c1ccc(F)cc1 [Haloperidol]
Conditions	LDH release cytotoxicity [%]
0.03162 µM	-1.32
0.1 µM	-2.17
0.3162278 µM	-1.58
1 µM	-1.63
3.16228 µM	-2.03
10 µM	-1.44
31.6228 µM	4.34
100 µM	62.2

CN(C)C=O [N,N-Dimethylformamide]
Conditions	LDH release cytotoxicity [%]
0.03162 µM	-0.983
0.1 µM	-2.55
0.3162278 µM	-1.61
1 µM	-2.12
3.16228 µM	-2.02
10 µM	-1.22
31.6228 µM	-0.581
100 µM	0.434

COc1nn(CSP(=S)(OC)OC)c(=O)s1 [Methidathion]
Conditions	LDH release cytotoxicity [%]
0.03162 µM	1.04
0.1 µM	-1.02
0.3162278 µM	-0.883
1 µM	-0.575
3.16228 µM	0.0624
10 µM	1.08
31.6228 µM	0.461
100 µM	1.33

O=[N+]([O-])/N=C1\NCCN1Cc1ccc(Cl)nc1 [Imidacloprid]
Conditions	LDH release cytotoxicity [%]
0.03162 µM	-2.56
0.1 µM	-1.08
0.3162278 µM	-1.14
1 µM	-1.66
3.16228 µM	-1.89
10 µM	-0.694
31.6228 µM	-0.538
100 µM	1.58

CCCCOCCOCCOCc1cc2c(cc1CCC)OCO2 [Piperonyl butoxide]
Conditions	LDH release cytotoxicity [%]
0.031939 µM	-0.462
0.101 µM	-2.71
0.31939 µM	-2.69
1.01 µM	-3.07
3.1939 µM	-2.38
10.1 µM	-1.93
31.939 µM	-0.729
101 µM	4.54

CCCCCOC(=O)c1ccccc1C(=O)OCCCCC [Dipentyl phthalate]
Conditions	LDH release cytotoxicity [%]
0.03162 µM	-0.338
0.1 µM	-1.03
0.3162278 µM	-1.76
1 µM	-0.0572
3.16228 µM	10.4
10 µM	55.1
31.6228 µM	47.6
100 µM	43.3

Nc1ccc2ccccc2c1 [2-Naphthylamine]
Conditions	LDH release cytotoxicity [%]
0.03162 µM	-1.06
0.1 µM	-1.31
0.3162278 µM	-0.801
1 µM	-1.43
3.16228 µM	-1.16
10 µM	-0.463
31.6228 µM	0.128
100 µM	0.14

CCCCOC(=O)c1ccccc1C(=O)OCCCC [Dibutyl phthalate]
Conditions	LDH release cytotoxicity [%]
0.03162 µM	6.54
0.1 µM	3.46
0.3162278 µM	3.28
1 µM	4.3
3.16228 µM	4.61
10 µM	4.63
31.6228 µM	6.08
100 µM	9.42

CC(C)Oc1cccc(NC(=O)c2ccccc2C(F)(F)F)c1 [Flutolanil]
Conditions	LDH release cytotoxicity [%]
0.031623 µM	-1.37
0.1 µM	-2.54
0.316228 µM	-3.14
1 µM	-2.18
3.16228 µM	-1.81
10 µM	-1.86
31.6228 µM	-0.343
100 µM	3.01

CC(=O)OC1(C(C)=O)CCC2C3C=C(Cl)C4=CC(=O)C5CC5C4(C)C3CCC21C (stereo unspecified) [Cyproterone acetate]
Conditions	LDH release cytotoxicity [%]
0.03162 µM	-0.255
0.1 µM	-1.64
0.3162278 µM	-0.773
1 µM	-0.77
3.16228 µM	-0.346
10 µM	0.58
31.6228 µM	10.4
100 µM	46.5

CNC(=O)ON=C(SC)C(=O)N(C)C [Oxamyl]
Conditions	LDH release cytotoxicity [%]
0.03162 µM	-0.761
0.1 µM	-0.802
0.3162278 µM	-1.45
1 µM	-1.85
3.16228 µM	-1.65
10 µM	-1.06
31.6228 µM	-1.05
100 µM	-1.42

COCc1cnc(C2=NC(C)(C(C)C)C(=O)N2)c(C(=O)O)c1 (stereo unspecified) [Imazamox]
Conditions	LDH release cytotoxicity [%]
0.03162 µM	-0.37
0.1 µM	-1.71
0.3162278 µM	-1.61
1 µM	-1.73
3.16228 µM	-1.43
10 µM	-1.49
31.6228 µM	-2
100 µM	-0.764
